Measurements: patent publication US10202370B2, “Benzimidazole derivatives as selective proteine kinase inhibitors” (AB SCIENCE, priority 2013, dated 2019)

Molecular target: c-kit WT (Homo sapiens (Human), UniProt P10721)
Test: Proliferation assay (CellTiter-Blue) on BaF3 Kit WT cell line
Format: cell-based
Conditions: BaF3 Kit WT cell line (murine Ba/F3 expressing Human Kit WT, with murine SCF), 48 hours
How it was run: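 Ba/F3 cells expressing human Kit WT, maintained in RPMI/10% FCS with 250 ng/ml murine SCF, were seeded at 2.10^4 cells/well and exposed to ½ serial dilutions (0–10 μM) for 48 h at 37° C. Viability was measured by CellTiter-Blue fluorescence (544Ex/590Em, 4 h) in triplicate as % of untreated proliferation.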

Chain of c-kit WT (P10721 26-976): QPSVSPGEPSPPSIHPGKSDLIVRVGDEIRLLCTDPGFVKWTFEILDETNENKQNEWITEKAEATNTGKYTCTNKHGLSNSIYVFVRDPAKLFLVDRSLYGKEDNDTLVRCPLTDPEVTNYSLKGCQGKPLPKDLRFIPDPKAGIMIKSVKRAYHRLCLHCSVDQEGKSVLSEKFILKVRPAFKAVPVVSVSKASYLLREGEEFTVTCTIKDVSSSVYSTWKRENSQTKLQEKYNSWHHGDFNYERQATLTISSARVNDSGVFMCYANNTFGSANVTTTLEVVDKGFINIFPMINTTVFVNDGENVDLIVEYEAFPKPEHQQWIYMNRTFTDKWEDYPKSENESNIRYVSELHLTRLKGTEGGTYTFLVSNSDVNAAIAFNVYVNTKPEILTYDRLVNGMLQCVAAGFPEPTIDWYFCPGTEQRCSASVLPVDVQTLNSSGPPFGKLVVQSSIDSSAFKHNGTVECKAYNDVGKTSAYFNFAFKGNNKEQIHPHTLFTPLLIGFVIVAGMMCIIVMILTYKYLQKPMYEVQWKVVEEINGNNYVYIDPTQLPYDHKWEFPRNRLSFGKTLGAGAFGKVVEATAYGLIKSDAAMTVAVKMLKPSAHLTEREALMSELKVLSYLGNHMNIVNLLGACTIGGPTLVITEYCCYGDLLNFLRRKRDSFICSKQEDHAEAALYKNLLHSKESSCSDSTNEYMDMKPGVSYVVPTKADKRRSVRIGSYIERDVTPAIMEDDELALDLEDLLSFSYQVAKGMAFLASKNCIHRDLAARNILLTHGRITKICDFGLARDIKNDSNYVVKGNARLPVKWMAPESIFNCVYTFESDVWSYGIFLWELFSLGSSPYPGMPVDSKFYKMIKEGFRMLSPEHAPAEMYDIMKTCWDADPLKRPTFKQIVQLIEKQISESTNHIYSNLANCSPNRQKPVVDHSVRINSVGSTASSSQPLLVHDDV

| IC50 [µM] | SMILES |
| --- | --- |
| 1 to 10 | Cn1c(-c2cccc(C(F)(F)F)c2)nc2cc(Nc3nc(-c4cccnc4)cs3)ccc21 [Compound 091, [1-Methyl-2-(3-trifluoromethyl-phenyl)-1H-benzoimidazol-5-yl]-(4-pyridin-3-yl-thiazol-2-yl)-amine] |
| 1 to 10 | Cc1cc2nc(-c3ccc(C(F)(F)F)cc3)[nH]c2cc1Nc1nc(-c2cncnc2)cs1 [Compound 067, [6-Methyl-2-(4-trifluoromethyl-phenyl)-1H-benzoimidazol-5-yl]-(4-pyrimidin-5-yl-thiazol-2-yl)-amine] |
| ≤ 1 | COc1cccc(-c2nc3cc(Nc4nc(-c5cccnc5)cs4)c(C)cc3[nH]2)c1 [Compound 126, [2-(3-Methoxy-phenyl)-6-methyl-1H-benzoimidazol-5-yl]-(4-pyridin-3-yl-thiazol-2-yl)-amine] |
| 1 to 10 | C=CS(=O)(=O)Nc1cccc(-c2nc3cc(Nc4nc(-c5ccncc5)cs4)c(C)cc3n2C)c1 [Compound 135, Ethenesulfonic acid {3-[1,6-dimethyl-5-(4-pyridin-4-yl-thiazol-2-ylamino)-1H-benzoimidazol-2-yl]-phenyl}-amide] |
| ≤ 1 | Cc1cc2nc(-c3cccc(OC(F)(F)F)c3)[nH]c2cc1Nc1nc(-c2cccnc2)cs1 [Compound 026] |
| ≤ 1 | FC(F)c1cccc(-c2nc3cc(Nc4nc(-c5cccnc5)cs4)ccc3[nH]2)c1 [Compound 087, [2-(3-Difluoromethyl-phenyl)-1H-benzoimidazol-5-yl]-(4-pyridin-3-yl-thiazol-2-yl)-amine] |
| 1 to 10 | Cc1cc2nc(-c3ccc(CN4CCN(C)CC4)cc3)[nH]c2cc1Nc1nc(-c2cncnc2)cs1 [Compound 065, {6-Methyl-2-[4-(4-methyl-piperazin-1-ylmethyl)-phenyl]-3H-benzoimidazol-5-yl}-(4-pyrimidin-5-yl-thiazol-2-yl)-amine] |
| ≤ 1 | Cc1cc2nc(-c3cccc(C(F)F)c3)[nH]c2cc1Nc1nccc(-c2cccnc2)n1 [Compound 030, [2-(3-Difluoromethyl-phenyl)-6-methyl-3H-benzoimidazol-5-yl]-(4-pyridin-3-yl-pyrimidin-2-yl)-amine] |
| ≤ 1 | Cc1cc2[nH]c(-c3cccc(C(C)(C)C)c3)nc2cc1Nc1nc(-c2ccc(C#N)cc2)cs1 [Compound 154, 4-{2-[2-(3-tert-Butyl-phenyl)-6-methyl-1H-benzoimidazol-5-ylamino]-thiazol-4-yl}-benzonitrile] |
| ≤ 1 | Cc1cc2c(cc1Nc1nc(-c3ccncc3)cs1)nc(-c1cccc(C(F)(F)F)c1)n2C(C)C [Compound 101, [1-Isopropyl-6-methyl-2-(3-trifluoromethyl-phenyl)-1H-benzoimidazol-5-yl]-(4-pyridin-4-yl-thiazol-2-yl)-amine] |
| 1 to 10 | Cc1cc2nc(-c3cccc(Cl)c3)[nH]c2cc1Nc1nc(-c2cncnc2)cs1 [Compound 068, [2-(3-Chloro-phenyl)-6-methyl-1H-benzoimidazol-5-yl]-(4-pyrimidin-5-yl-thiazol-2-yl)-amine] |
| 1 to 10 | Cc1cc2nc(-c3ccc(CN4CCN(C)CC4)cc3)[nH]c2cc1Nc1nccc(-c2cccnc2)n1 [Compound 009, {6-Methyl-2-[4-(4-methyl-piperazin-1-ylmethyl)-phenyl]-3H-benzoimidazol-5-yl}-(4-pyridin-3-yl-pyrimidin-2-yl)-amine] |
| 1 to 10 | Cc1cc2nc(-c3cccc(CN4CCN(C)CC4)c3)[nH]c2cc1Nc1nccc(-c2cccnc2)n1 [Compound 043, {6-Methyl-2-[3-(4-methyl-piperazin-1-ylmethyl)-phenyl]-3H-benzoimidazol-5-yl}-(4-pyridin-3-yl-pyrimidin-2-yl)-amine] |

Further lines, the compound ahead of its results:

| SMILES | IC50 [µM] |
| --- | --- |
| Cc1cc2nc(-c3cc(CN4CCCCC4)cc(C(F)(F)F)c3)[nH]c2cc1Nc1nccc(-c2cccnc2)n1 [Compound 035, [6-Methyl-2-(3-piperidin-1-ylmethyl-5-trifluoromethyl-phenyl)-3H-benzoimidazol-5-yl]-(4-pyridin-3-yl-pyrimidin-2-yl)-amine] | ≤ 1 |
| CCn1c(-c2cccc(C(F)F)c2)nc2cc(Nc3nc(-c4cccnc4)cs3)c(C)cc21 [Compound 109] | ≤ 1 |
| Cc1cc2c(cc1Nc1nc(-c3ccc(C#N)cc3)cs1)nc(-c1cccc(C(F)F)c1)n2C [Compound 111, 4-{2-[2-(3-Difluoromethyl-phenyl)-1,6-dimethyl-1H-benzoimidazol-5-ylamino]-thiazol-4-yl}-benzonitrile] | ≤ 1 |
| Cc1cc2nc(-c3cc(CN4CCCCC4)cc(C(F)(F)F)c3)[nH]c2cc1Nc1nc(-c2cccnc2)cs1 [Compound 024, [6-Methyl-2-(3-piperidin-1-ylmethyl-5-trifluoromethyl-phenyl)-3H-benzoimidazol-5-yl]-(4-pyridin-3-yl-thiazol-2-yl)-amine] | ≤ 1 |
| Cc1cc2c(cc1Nc1nc(-c3cccnc3)cs1)nc(-c1cccc(C(F)F)c1)n2C [Compound 084, [2-(3-Difluoromethyl-phenyl)-1,6-dimethyl-1H-benzoimidazol-5-yl]-(4-pyridin-3-yl-thiazol-2-yl)-amine] | ≤ 1 |
| Cc1cc2c(cc1Nc1nc(-c3ccc(C#N)cc3)cs1)nc(-c1cccc(C(C)C)c1)n2C [Compound 142, 4-{2-[2-(3-Isopropyl-phenyl)-1,6-dimethyl-1H-benzoimidazol-5-ylamino]-thiazol-4-yl}-benzonitrile] | ≤ 1 |
| Cn1c(-c2cccc(C(F)F)c2)nc2cc(Nc3nc(-c4cccnc4)cs3)ccc21 [Compound 090, [2-(3-Difluoromethyl-phenyl)-1-methyl-1H-benzoimidazol-5-yl]-(4-pyridin-3-yl-thiazol-2-yl)-amine] | 1 to 10 |
| Cc1cc2nc(-c3cccc(C(F)F)c3)[nH]c2cc1Nc1nc(-c2cccnc2)cs1 [Compound 025, [2-(3-Difluoromethyl-phenyl)-6-methyl-3H-benzoimidazol-5-yl]-(4-pyridin-3-yl-thiazol-2-yl)-amine] | ≤ 1 |
| Cc1cc2nc(-c3ccc(C(F)(F)F)cc3)[nH]c2cc1Nc1nc(-c2ccncc2)cs1 [Compound 050, [6-Methyl-2-(4-trifluoromethyl-phenyl)-3H-benzoimidazol-5-yl]-(4-pyridin-4-yl-thiazol-2-yl)-amine] | ≤ 1 |
| Cn1c(-c2cccc(OC(F)(F)F)c2)nc2cc(Nc3nc(-c4cccnc4)cs3)ccc21 [Compound 092, [1-Methyl-2-(3-trifluoromethoxy-phenyl)-1H-benzoimidazol-5-yl]-(4-pyridin-3-yl-thiazol-2-yl)-amine] | 1 to 10 |
| Cc1cc2c(cc1Nc1nc(-c3ccc(C#N)cc3)cs1)nc(-c1cccc(C(F)(F)F)c1)n2C [Compound 114, 4-{2-[1,6-Dimethyl-2-(3-trifluoromethyl-phenyl)-1H-benzoimidazol-5-ylamino]-thiazol-4-yl}-benzonitrile] | ≤ 1 |
| Cc1cc2c(cc1Nc1nc(-c3ccncc3)cs1)nc(-c1cccc(OC(F)(F)F)c1)n2C [Compound 083, [1,6-Dimethyl-2-(3-trifluoromethoxy-phenyl)-1H-benzoimidazol-5-yl]-(4-pyridin-4-yl-thiazol-2-yl)-amine] | ≤ 1 |
| COc1cccc(-c2nc3cc(Nc4nc(-c5ccc(C#N)cc5)cs4)c(C)cc3[nH]2)c1 [Compound 128, 4-{2-[2-(3-Methoxy-phenyl)-6-methyl-1H-benzoimidazol-5-ylamino]-thiazol-4-yl}-benzonitrile] | ≤ 1 |
